# Laboratory results: publication PMC5522071, “Preclinical development of G1T38: A novel, potent and selective inhibitor of cyclin dependent kinases 4/6 for use as an oral antineoplastic in patients with CDK4/6 sensitive tumors” (Oncotarget, 2017)
# How the values were obtained:
# [1] = tested on: ER+ MCF7 xenograft; experiment: MCF-7 breast cancer xenograft model; type: in vivo, mice; settings: for tumor growth inhibition (TGI): after 27 days of treatment
# Procedure: Tumors were measured every 3 to 4 days during treatment for up to 20 days post-treatment. […] South Texas Accelerated Research Therapeutics (START; San Antonio, Texas) evaluated the antitumor activity of G1T38 in a START Cell-Based Xenograft (START-CBX) tumor model, MCF-7, representing human breast cancer. Data collected from this efficacy study included animal weights, observations, and tumor dimensions. This information was used to determine agent tolerability based on weight change and gross physiologic changes, and anticancer activity based on tumor growth inhibition or regression. Study endpoint was Day 60. MCF-7 cells were harvested from culture and injected into immune-deficient mice and the study initiated at a mean tumor volume of approximately 150-250 mm^3. […] Tumor growth inhibition (%TGI) was calculated using the following equation: %TGI=(1-(((TVtmtfinal-TVtmtinitial))/((AVERAGE(TVctlfinal))-(AVERAGE(TVctlinital)))))*100.
# [2] = tested on: MMTV-Neu GEMM (Her2/Neu) tumors; experiment: Her2Neu breast cancer GEMM; type: in vivo, mice; settings: 100 mg/kg in diet, after 21 days of treatment
# Procedure: After 21 days, tumor progression was calculated using the formula: (21 day volume – initial volume)/ initial volume x 100. […] Yellow bar represents duration of treatment. Statistics were completed using linear regression analysis of time during treatment (28 days). Error bars represent SEM. **p≤0.01.
# Female MMTV-NEU mice (Jackson Labs Strain 002376) were used to test the efficacy of G1T38 (100 mpk, medicated diet). Drug was incorporated into diet by Research Diets (New Brunswick, NJ) using the following parameters; 25 gm mouse eating 3.2 gm of food/day. Mice were monitored for tumor development by palpating them weekly as per University of North Carolina at Chapel Hill Lineberger Mouse Phase 1 Unit (MP1U) protocol. At time of treatment, body composition was assessed and weight measurements (in grams) were recorded and used as a measure of gross toxicity. Mice were monitored until euthanized at predetermined humane endpoints per approved University of North Carolina at Chapel Hill IACUC protocols.
# [3] = in vivo; settings: po, 100 mg/kg
# Procedure: To evaluate the murine PK/PD relationship of G1T38, an ER^+ MCF7 xenograft model was utilized. Compound concentrations were measured in plasma and tumors from tumor-bearing mice given a single oral dose of G1T38 (100 mg/kg). […] To assess the effects of G1T38 on pRB, tumors were harvested and pRB was analyzed by immunoblotting.
# [4] = Elimination half-life; settings: in vivo
# Procedure: Supplementary Table 2: Elimination Half-Lives of G1T38
# T1/2 (hrs) Mouse Rat Dog Human
# Elimination half-lives (T1/2) were determined for G1T38 (in-house results and calculated as part of NCT02821624) and
# In lower order species, mice and rats, values are similar between both compounds, however in dogs and […]
# [5] = tested on: castration resistant prostate cancer (CRPC) models; parameters: method as in Stice JP, Wardell SE, Norris, JD et al., in press; settings: ref Stice JP, Wardell SE, Norris, JD et al., in press; cited from earlier work
# [6] = 28-day repeat-dose GLP toxicity study; type: in vivo; settings: dog
# [7] = tested on: RB phosphorylation (Ser807/811) in WM2664 cells; experiment: Western blot for pRb and total Rb; type: cell-based
# Procedure: Once phosphorylated, RB dissociates from cell cycle-promoting transcription factors, allowing them to drive the G1 to S-phase transition. Therefore, CDK4/6 inhibition of RB phosphorylation will arrest cells in G1. To assess the effect of G1T38 on RB phosphorylation, WM2664 cells were treated with varying doses of G1T38 for 24 hours. After treatment, cells were harvested and phosphorylation of RB at the Ser807/811 sites was evaluated via immunoblotting. Phosphorylation of RB at Ser807/811 sites first requires binding of CDK4/6 [3] in order to progress into S-phase. […] To determine the kinetics of CDK4/6 inhibition on RB phosphorylation, WM2664 cells were treated with 300 nM G1T38 for 1, 4, 8, 16, and 24 hours.
# WM2664 cells were either treated for dose response (3, 10, 30, 100, 300 or 1000 nM) for 24 hours or a time course (1, 4, 8, 16 or 24 hours) with 300 nM G1T38. Whole cell extracts were prepared using 1x radioimmunoprecipitation assay buffer (RIPA) (ThermoFisher) containing 1x HALT® protease and phosphatase inhibitors (ThermoFisher). Total protein concentration was determined by using the bicinchoninic acid (BCA) Protein Assay Kit (PIERCE/ ThermoFisher), according to manufacturer's instructions. 20 micrograms of protein were heat denatured for 10 minutes at 70°C and resolved by Novex® NuPAGE® SDS-PAGE gel system (ThermoFisher) at 200 volts, constant current and transferred to 0.45 μm nitrocellulose membrane (Life Technologies) in 1 x Transfer buffer (Life Technologies) plus 20% methanol (Sigma-Aldrich (St. Louis, MO) by electroblotting at 35 volts, constant current. Membranes were blocked in LiCor Membrane Blocking Buffer (Lincoln, NE) and incubated overnight with either rabbit anti-pRb (Ser807/811, CST-9308) antibody (Cell Signaling Technology (Danvers, MA) at a 1:500 dilution or mouse anti-Rb (CST-9309) at a 1:2,000 dilution and mouse α-tubulin (CST-3873) antibody (Cell Signaling Technology) at a 1:1,000 dilution, as a loading control. […] Blots were incubated for one hour, washed and imaged using LiCor ImageStudio software (Version 4.0.21).
# [8] = tested on: pRB in MCF7 xenograft tumors; experiment: Inhibition of Rb phosphorylation in MCF-7 tumors; type: in vivo, mice; settings: single oral dose 100 mg/kg
# [9] = molecular target: T1, CDK9/Cyclin T (Homo sapiens, UniProt P50750); type: biochemical; settings: 12-point dose response, singlicate, at Km for ATP
# T1 construct: purchased Nanosyn, Inc. (contract assay)
# T1 sequence (P50750 whole entry): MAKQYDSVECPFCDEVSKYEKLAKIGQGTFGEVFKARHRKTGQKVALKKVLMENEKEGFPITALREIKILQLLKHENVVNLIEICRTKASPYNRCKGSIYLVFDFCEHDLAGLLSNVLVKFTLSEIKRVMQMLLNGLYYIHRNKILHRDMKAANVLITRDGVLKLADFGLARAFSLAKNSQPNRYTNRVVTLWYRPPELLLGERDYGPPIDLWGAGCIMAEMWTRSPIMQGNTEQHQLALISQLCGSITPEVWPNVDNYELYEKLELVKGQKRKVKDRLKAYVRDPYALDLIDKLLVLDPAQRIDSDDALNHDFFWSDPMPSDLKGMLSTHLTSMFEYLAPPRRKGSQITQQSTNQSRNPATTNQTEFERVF
# T1 sequence (O60563 whole entry partner): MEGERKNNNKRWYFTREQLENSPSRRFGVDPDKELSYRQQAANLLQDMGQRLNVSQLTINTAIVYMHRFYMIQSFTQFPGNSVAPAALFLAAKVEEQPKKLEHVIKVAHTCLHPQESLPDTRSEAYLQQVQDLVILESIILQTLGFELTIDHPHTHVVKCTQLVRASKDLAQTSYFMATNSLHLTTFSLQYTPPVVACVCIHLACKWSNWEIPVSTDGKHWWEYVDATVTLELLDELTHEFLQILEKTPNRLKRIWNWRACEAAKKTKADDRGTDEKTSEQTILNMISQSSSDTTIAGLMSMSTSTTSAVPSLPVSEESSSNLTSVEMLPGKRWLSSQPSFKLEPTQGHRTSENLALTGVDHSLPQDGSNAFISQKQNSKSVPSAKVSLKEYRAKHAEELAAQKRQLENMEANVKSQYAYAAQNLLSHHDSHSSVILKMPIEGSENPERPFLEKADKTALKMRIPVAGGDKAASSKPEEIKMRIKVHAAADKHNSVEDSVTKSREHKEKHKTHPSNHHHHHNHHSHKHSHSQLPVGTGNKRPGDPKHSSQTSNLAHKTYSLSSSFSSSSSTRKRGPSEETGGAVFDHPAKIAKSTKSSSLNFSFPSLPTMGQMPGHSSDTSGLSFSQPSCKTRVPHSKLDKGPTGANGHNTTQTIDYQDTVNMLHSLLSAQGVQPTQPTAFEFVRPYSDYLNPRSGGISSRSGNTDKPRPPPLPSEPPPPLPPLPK
# [10] = molecular target: T2, CDK5/p25 (Homo sapiens, UniProt Q00535); type: biochemical; settings: 12-point dose response, singlicate, at Km for ATP
# T2 construct: purchased Nanosyn, Inc. (contract assay)
# T2 sequence (Q00535 whole entry): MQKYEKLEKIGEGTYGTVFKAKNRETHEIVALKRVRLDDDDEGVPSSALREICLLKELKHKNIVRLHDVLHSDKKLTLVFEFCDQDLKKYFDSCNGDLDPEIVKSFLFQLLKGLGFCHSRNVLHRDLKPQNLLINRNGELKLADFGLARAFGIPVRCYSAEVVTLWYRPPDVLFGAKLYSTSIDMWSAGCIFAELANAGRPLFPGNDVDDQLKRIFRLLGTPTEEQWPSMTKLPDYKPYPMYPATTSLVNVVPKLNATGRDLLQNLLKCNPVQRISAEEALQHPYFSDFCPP
# T2 sequence (Q15078 99-307 partner limits assumed): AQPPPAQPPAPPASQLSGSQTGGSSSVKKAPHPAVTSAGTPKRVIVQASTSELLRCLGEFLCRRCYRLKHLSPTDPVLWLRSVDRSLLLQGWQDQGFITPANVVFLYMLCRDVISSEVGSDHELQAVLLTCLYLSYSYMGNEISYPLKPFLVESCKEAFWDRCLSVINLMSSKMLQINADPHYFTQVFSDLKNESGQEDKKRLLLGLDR
smiles,measurement,setting,value
"CC(C)N1CCN(c2ccc(Nc3ncc4cc5n(c4n3)C3(CCCCC3)CNC5=O)nc2)CC1.Cl.Cl [G1T38, 2′-((5-(4-isopropylpiperazin-1-yl)pyridin-2-yl)amino)-7′, 8′dihydro-6′Hspiro[cyclohexane1,9′ pyrazino[1′,2′:1,5]pyrrolo[2,3-d]pyrimidin]-6′-one di-hydrochloride]",tumor growth inhibition (TGI),[1]; 10 mg/kg once daily oral,approximately 12%
same,"tumor response, combination with fulvestrant","[1]; 50 mg/kg G1T38 + 5 mg fulvestrant, 28 days","near complete, sustained tumor regression"
same,"tumor response, combination with tamoxifen","[1]; 50 mg/kg G1T38 + 20 mg/kg tamoxifen, 28 days","near complete, sustained tumor regression"
same,efficacy compared with palbociclib,"[1]; 50 mg/kg daily oral, 28 days",significantly more efficacious than palbociclib
same,tumor growth inhibition (TGI),[1]; 50 mg/kg once daily oral,~74%
same,time to tumor regression,[1]; 100 mg/kg daily oral,≤ 10 days
same,tumor growth inhibition (TGI),[1]; 100 mg/kg once daily oral,~90%
same,"efficacy, combination with GDC0941",[1]; G1T38 25 or 50 mg/kg + GDC0941 100 mg/kg,greater efficacy than any of the treatments alone
same,"tumor response, combination with GW5638",[1]; G1T38 25 or 50 mg/kg + GW5638 25 mg/kg,sustained tumor regression
same,TGI as single agents (GDC0941 study),"[1]; G1T38 25 or 50 mg/kg alone, GDC0941 100 mg/kg alone",modest TGI
same,TGI as single agents (GW5638 study),"[1]; G1T38 25 or 50 mg/kg alone, GW5638 25 mg/kg alone",modest TGI
same,tumor regression,[2],38%
same,Kp,"[3]; C57BL/6, mouse",17
same,Kp at 24 h,"[3]; C57BL/6, mouse",> 100
same,concentration at 48 h,"[3]; C57BL/6, mouse",~65 ng/mL
same,drug in the plasma,[3]; mouse,no drug was detectable
same,half-life,"[4]; Human, calculated as part of NCT02821624",15 h
same,half-life,[4]; rat,3.1 h
same,anti-tumor activity compared with docetaxel,[5],equivalent anti-tumor activity
same,findings on oral administration,[6],reduction of bone marrow cellularity and lymphocyte depletion
same,time to near complete inhibition of RB phosphorylation post-treatment,[7]; 300 nM,≤ 16 h
same,time to reduced RB phosphorylation post-treatment,[7]; 300 nM,≤ 1 h
same,inhibition of RB phosphorylation (figure legend),"[7]; 300 nM exposure, 24 hours",complete inhibition
same,inhibition of RB phosphorylation compared to vehicle controls,"[7]; 30-1000 nM, 24 hours",complete inhibition
same,decrease of phosphorylated RB relative to the control,[8]; 1 hour post-treatment,30%
same,decrease of phosphorylated RB relative to the control,[8]; 24 hours post-treatment,98%
same,"phosphorylation of RB, of control levels",[8]; 48 hours post-treatment,approximately 31%
same,IC50,[9],0.028 µM
same,IC50,[10],1.2 µM
